Source: patent publication US20110166066A1, “CATESTATIN (CST) AND ITS VARIANTS FOR TREATMENT OF CARDIOVASCULAR AND METABOLIC DISORDERS” (priority 2008, published 2011)
No end group written: not given here.

What was measured:
[1] = tested on: Langendorff perfused rat heart; experiment: WT-CST inotropism/lusitropism in presence of adrenergic, cholinergic, Gi/o and NO-pathway inhibitors (Langendorff heart); conditions: for Negative inotropism with muscarinic receptor antagonist: WT-CST 110 nM + Atropine 10 nM; for Negative inotropism with β-adrenoceptor antagonist: WT-CST 110 nM + Nadolol 10 nM; for Negative inotropism with α-adrenoceptor antagonist: WT-CST 110 nM + Phentolamine 100 nM; for Negative inotropism with Gi/o protein inhibition: WT-CST 110 nM after PTx 0.01 nM; for LVP change: preliminary experiments
Procedure: Adrenergic and cholinergic receptors involvement—To obtain information on the involvement of β1/β2, α-adrenergic receptors (ARs) and cholinergic receptors (AchR) on the inotropic and lusitropic effects induced by WT-Cts, cardiac preparations, stabilized for 20 min with KHs, were perfused with Nadolol (10 nM) or Phentolamine (100 nM) or Atropine (10 nM) for 10 min and then washed-out with KHs. After returning to control conditions, each heart was perfused with KHs containing a single concentration of Cts WT (110 nM) plus Nadolol (10 nM) or Phentolamine (100 nM) or Atropine (10 nM) for an additional 10 min.
Involvement of inhibitory G-protein (Gi/o)—To evaluate the involvement of inhibitory G-proteins in the cardiac action of WT-Cts, hearts were preincubated for 60 min with KHs enriched with pertussis toxin (PTx: 0.01 nM) and then exposed for 10 min to WT-Cts (110 nM). PTx catalyzes ADP-ribosylation of Gi/o alpha-subunit, uncoupling Gi-membrane receptor interaction.
NO-pathway inhibitor stimulated preparations—Hearts were stabilized for 20 min with KHs, perfused with 110 nM WT-Cts for 10 min and then the peptide was washed-out with KHs. After returning to control conditions, each heart was perfused with KHs containing either the NO scavenger PTIO, the non-specific NOS inhibitor L-NMMA, a soluble guanylate cyclase inhibitor (ODQ) or a protein kinase G blocker (KT5823). Subsequently, the hearts were exposed to the specific signaling inhibitor plus 110 nM of WT-Cts.

[2] = tested on: WT and Chga knockout (KO) mice; experiment: Response to PE or SNP and baroreflex sensitivity in unconscious mice; assay type: in vivo; conditions: KO mice, CST 40 μg/g bw iv
Procedure: Unconscious mice. Surgical procedures for hemodynamic measurements: Hemodynamic evaluation in both WT and KO mice was performed under general anesthesia [ketamine (100 mg/kg) and xylazine (2.5 mg/kg)] while connected to a ventilator. LV pressure was monitored by Millar micromanometer catheter of size 1.4 French (0.46 mm; Millar Instruments, Houston, Tex.); it was inserted into the LV where phasic and mean pressure was continuously monitored (Gould, Cleveland, Ohio). A venous catheter (MicroRenathane tube MRE-033; Braintree Laboratories, Braintree, Mass.) is implanted on right femoral vein for injection of peptide and other reagents. All physiologic signals were acquired by WINDAQ (Dataq Instruments, Akron, Ohio) and analyzed by BP-Analysis software (developed for own laboratory).
Assessment of baroreflex sensitivity (BRS): BRS (in milliseconds per mmHg) was assessed by both high-pressure [phenylephrine (PE) bolus] and low-pressure [sodium nitroprusside (SNP) bolus] stimuli in unconscious mice. Although conscious animals provide optimal physiological data, a host of undesirable signals are triggered by physical activities, and sleep cycle alterations in behavioral state. Therefore, we have chosen to conduct the experiments in unconscious mice to avoid some of the pitfalls encountered in awake animals. The absolute changes of HR in response to changes in SBP induced by PE or SNP were subjected to linear regression analysis to determine BRS. To test the effect of CST on BRS in KO mice, CST was injected (40 μg/g bw iv) 30 min before the injection of PE or SNP through the catheter implanted into the femoral vein.
BRS to high-pressure stimulus. High pressure BRS was evaluated by recording diminution of HR in response to PE-induced hypertension. Changes in SBP and HR were recorded continuously for 0.5 min after a bolus injection of PE (0.005 μg/g bw iv). This dose was selected from a preliminary dose-response study (0.001-0.05 μg/g bw iv).
BRS to low-pressure stimulus. This was evaluated by recording increments in HR in response to SNP-induced fall in BP. Changes in SBP and HR were recorded continuously for 0.5 min after a bolus injection of SNP (0.05 μg/g bw iv). This dose was selected from a preliminary dose-response study (0.01-0.1 μg/g bw iv).

[3] = tested on: Langendorff perfused rat heart; experiment: Isoproterenol stimulated Langendorff heart preparations
Procedure: Isoproterenol stimulated preparations—Cardiac preparations were stabilized for 20 min with KHs and then perfused with 5 nM ISO for 10 min. ISO was washed-out with KHs. After returning to control conditions, each heart was perfused with KHs containing a single concentration of WT-Cts […] or G364S-Cts (200 nM) with 5 nM ISO for a further 10 min.
To further describe the antagonistic action of either WT-Cts (33 nM), P370L-Cts (110 nM) or G364S-Cts (200 nM) against ISO-dependent stimulation, dose-response curves were generated by perfusing the heart preparations with KHs enriched with increasing concentrations of ISO (0.1 nM to 1 μM) alone. These curves were then compared to those obtained by exposing other cardiac preparations to the same perfusion medium containing increasing concentrations of ISO (0.1 nM to 1 μM) plus a single concentration of either WT-Cts (33 nM) or P370L-Cts (110 nM) or G364S-Cts (200 nM).
Statistics—Data are expressed as the mean±SEM. Curve fitting was accomplished in the program Kaleidagraph (Synergy Software, Reading, Pa.). Peptide EC50 and IC50 values were interpolated as the concentration that achieved 50% stimulation and inhibition, respectively. For analysis of phosphorylated proteins, levels were quantified using Bio-Rad QuantifyOne and volumes of phosphorylated proteins were divided by the levels of non-phosphorylated proteins to calculate fold activation. Stimulation of protein activity was expressed as fold increase over vehicle-treated control. The means and S.E.M. were calculated for each treatment. Multiple comparisons were made using either one-way ANOVA followed by Bonferroni's post-hoc test or two-way ANOVA. Statistical significance was concluded at p<0.05. Statistics were computed with the program InStat (GraphPad Software, Inc., San Diego, Calif.).
To characterize the inhibitory action of either WT-CST (11, 33 or 110 nM), G364S-CST (200 nM) or P370L-CST (110 nM) toward ISO-dependent stimulation of cardiac function, heart preparations were perfused with KHs containing increasing concentrations of ISO (0.1 nM to 1 μM) either alone or in combination with one of the three CST variants.

SSMKLSFRARAYGFRGPGPQL [WT-CST, catestatin]
Negative inotropism with muscarinic receptor antagonist [1]: remained unaffected | Negative inotropism with muscarinic receptor antagonist ([1]; listed as WT-Cts): Unchanged | CST-induced changes in cardiac performance with PKG inhibition by KT5823 ([1]; WT-CST 110 nM + KT5823 0.1 μM): failed to affect | Negative inotropism and lusitropism with NOS inhibition by L-NMMA ([1]; WT-CST 110 nM + L-NMMA 10 μM): abolished | Negative inotropism with β-adrenoceptor antagonist [1]: abolished | Negative inotropism with β-adrenoceptor antagonist ([1]; listed as WT-Cts): Abolished | Negative inotropism and lusitropism with sGC blockade by ODQ ([1]; WT-CST 110 nM + ODQ 10 μM): abolished | Negative inotropism and lusitropism with NO removal by PTIO ([1]; WT-CST 110 nM + PTIO 10 μM): abolished | Negative inotropism with α-adrenoceptor antagonist [1]: reduced | Negative inotropism with α-adrenoceptor antagonist ([1]; listed as WT-Cts): Reduced | Negative inotropism with Gi/o protein inhibition [1]: abolished | Negative inotropism with Gi/o protein inhibition ([1]; listed as WT-Cts): Abolished | Negative inotropism with eNOS-NO-cGMP-PKG pathway inhibition ([1]; WT-CST 110 nM, Table 1): Abolished | LVP change ([1]; WT-Cts + L-NIO (eNOS selective inhibitor)): 5.04±1.69 | LVP change ([1]; WT-Cts + Vinyl-L-NIO (nNOS selective inhibitor)): −13.14±2.25 | LVP change ([1]; WT-Cts alone): −18.19±2.27 | Dampened baroreflex slope [2]: restored | Type of antagonism against ISO [3]: non-competitive type of antagonism | Block of ISO-dependent +(LVdP/dT)max ([3]; ISO 5 nM): ~90% | ISO induced coronary dilation ([3]; ISO 5 nM): blocked | ISO-induced positive lusitropism ([3]; ISO 5 nM): blocked | Rank order of potency against ISO ([3]; ISO 5 nM): Order of potency: WT-CST > G364S-CST > P370L-CST | ISO stimulatory effect on LVP ([3]; ISO 5 nM, measured at 5 min): abolished | Coronary pressure (ISO alone or ISO + peptide) ([3]; Table 3, ISO 5 nM): Abolished | Inotropism (ISO alone or ISO + peptide) ([3]; Table 3, ISO 5 nM): Abolished | Lusitropism (ISO alone or ISO + peptide) ([3]; Table 3, ISO 5 nM): Abolished
